From patent US8486464B2, “Herbal composition for angina pectoris, method to prepare same and uses thereof” (Tasly Pharmaceutical Group Co. Ltd., priority 2000, dated 2013)

What was measured:
Assay type in all cases: in vivo
[1] = system: myocardial ischemia; experiment: Dog acute myocardial ischemia: level and area by ECG (Σ-ST, N-ST); settings: dogs, Dan Shen Pill 2 g/kg, Ditiazem 5 mg/kg
Experimental: (§1) 1.1 Experimental Groups. (1) Blank control group, normal saline 3 ml/kg; (2) DSP group, 2 g natural drug/kg; (3) positive control group, Ditiazem, 5 mg/kg. All the above samples are diluted with normal saline to the same volume of 3 ml/kg and were given to the patient through the duodenum.
(§2) 1.2 Experimental Method. The dogs are anesthetized with pentobarbital sodium. Chests were opened and coronary arterioles and the central part of the dorsal lower branch separated and tied to create an acute myocardial ischemia model. ECGs were recorded and the level of myocardial ischemia (increased section ST, ST) and area of myocardial ischemia (the total increased decimal places in section ST) were calculated. The oxygen content in the coronary artery was recorded. Blood serum creatine kinase (CK), lactate dehydrogenase (LDH), ET, TXB2 and 6-Keto-PGF1 were measured. The oxygen content of the aorta and coronary vein, and blood flow volume in the coronary arteries were measured to calculate myocardial oxygen consumption. Blood oxygen content in the coronary vein was measured to calculate myocardial oxygen content (myocardial oxygen content=(blood oxygen content in arteries-blood oxygen content in coronary veins)×blood flow volume in coronary artery/100).
(§3) The significance of the experimental results was tested by the t-testing method.

[2] = system: myocardial infarction; experiment: Dog myocardial infarction area (N-BT); settings: dogs; Dan Shen Pill 2 g/kg, Ditiazem 5 mg/kg
Experimental: as §1
The hearts were removed 180 mins after treatment and weighed, cut into slices, and colored with N-BT. The infarction area of each slice (N-BT-uncolorized area) and non-infarction area (N-BT colorized area) were measured. The percentage occupied by the infarction area in the ventricles was calculated and the whole heart was weighted.
as §3

[3] = system: venous blood oxygen content; experiment: Dog coronary venous blood oxygen content; settings: dogs, Dan Shen Pill 2 g/kg, Ditiazem 5 mg/kg
Experimental: as §1, §2

[4] = system: ET, TXB2, 6-Keto-PGF1α; experiment: Dog plasma ET, TXB2, 6-Keto-PGF1α; set-up: 6-Keto-PGF1α: unit not given beside the values; settings: dogs, Dan Shen Pill 2 g/kg, Diltiazem 5 mg/kg
Experimental: as §1, §2

[5] = system: SOD, MDA; experiment: Rat M-IR damage: SOD activity and MDA content in blood serum; settings: Wistar, 2 hrs after duodenal dosing, DSP 3.0 g/kg, Ditiazem 30 mg/kg
Experimental: (1) Experimental Groups. Control group (Serum taken as normal control), Model group (Normal Saline), Ditiazem group (30 mg/kg), DSP 6.0, 3.0 g/kg group. Each group was diluted to its necessary concentration with 3 ml/kg normal saline through the duodenum.
(2) Experimental Method. Wistar animal is anesthetized by pentobarbital sodium and fixed. Chests and cardial membranes are opened to expose the heart. A hole in the left lower dorsal part of the coronary artery is left for tying. Separate the duodenum, and infuse the tested drugs into it. Take blood from the abdomen after 2 hrs and test the MDA and SOD content in the blood serum.

`COc1ccc([C@@H]2Sc3ccccc3N(CCN(C)C)C(=O)[C@@H]2OC(C)=O)cc1` [Ditiazem] was tested, and the N-ST ([1]; 15 min after dosage) was 29.80, the “N-ST, changing in percentage (before dosage = 100%)” value ([1]; 15 min after dosage) was 99.33% and the Σ-ST ([1]; 15 min after dosage) was 277.80. For the same molecule, the “Σ-ST, changing in percentage (before dosage = 100%)” value ([1]; 15 min after dosage) was 91.83%, the N-ST ([1]; 30 min after dosage) was 29.60 and the “N-ST, changing in percentage (before dosage = 100%)” value ([1]; 30 min after dosage) was 98.67%. For the same molecule, the Σ-ST ([1]; 30 min after dosage) was 226.20, the “Σ-ST, changing in percentage (before dosage = 100%)” value ([1]; 30 min after dosage) was 74.87% and the N-ST ([1]; 45 min after dosage) was 29.20. For the same molecule, the “N-ST, changing in percentage (before dosage = 100%)” value ([1]; 45 min after dosage) was 97.33%, the Σ-ST ([1]; 45 min after dosage) was 213.40 and the “Σ-ST, changing in percentage (before dosage = 100%)” value ([1]; 45 min after dosage) was 70.59%. For the same molecule, the N-ST ([1]; 60 min after dosage) was 28.40, the “N-ST, changing in percentage (before dosage = 100%)” value ([1]; 60 min after dosage) was 94.67% and the Σ-ST ([1]; 60 min after dosage) was 186.20. The “Σ-ST, changing in percentage (before dosage = 100%)” value ([1]; 60 min after dosage) was 61.61%, the N-ST ([1]; 90 min after dosage) was 27.00 and the “N-ST, changing in percentage (before dosage = 100%)” value ([1]; 90 min after dosage) was 90.00%. For the same molecule, the Σ-ST ([1]; 90 min after dosage) was 175.20, the “Σ-ST, changing in percentage (before dosage = 100%)” value ([1]; 90 min after dosage) was 57.95% and the N-ST ([1]; 120 min after dosage) was 26.80. The “N-ST, changing in percentage (before dosage = 100%)” value ([1]; 120 min after dosage) was 89.33%, the Σ-ST ([1]; 120 min after dosage) was 468.00 and the “Σ-ST, changing in percentage (before dosage = 100%)” value ([1]; 120 min after dosage) was 55.60%. For the same molecule, the N-ST ([1]; 180 min after dosage) was 25.20, the “N-ST, changing in percentage (before dosage = 100%)” value ([1]; 180 min after dosage) was 84.00% and the Σ-ST ([1]; 180 min after dosage) was 122.80. For the same molecule, the “Σ-ST, changing in percentage (before dosage = 100%)” value ([1]; 180 min after dosage) was 40.63%, the N-ST ([1]; before dosage) was 30.00 and the Σ-ST ([1]; before dosage) was 302.80. For the same molecule, the “Area of Cardiac Chamber” value [2] was 5377.8 ± 411.2 mm2, the “Area of Infarction” value [2] was 378.98 ± 138.41 mm2 and the “Infarction Location/Cardiac Chamber” value [2] was 7.22 ± 2.87. For the same molecule, the “Infarction Location/Heart” value [2] was 2.52 ± 1.35, the Myocardial area [2] was 14096.5 ± 3056.4 mm2 and the “VO2, changing percentage (before dosage = 100%)” value ([3]; 30 min after dosage) was 97.70 ± 10.36%. For the same molecule, the “venous oxygen volume (VO2)” value ([3]; 30 min after dosage) was 16.08 ± 1.13 ml %, the “VO2, changing percentage (before dosage = 100%)” value ([3]; 60 min after dosage) was 95.95 ± 8.27% and the “venous oxygen volume (VO2)” value ([3]; 60 min after dosage) was 15.84 ± 1.43 ml %. For the same molecule, the “VO2, changing percentage (before dosage = 100%)” value ([3]; 90 min after dosage) was 96.37 ± 5.54%, the “venous oxygen volume (VO2)” value ([3]; 90 min after dosage) was 15.92 ± 1.29 ml % and the “VO2, changing percentage (before dosage = 100%)” value ([3]; 120 min after dosage) was 92.15 ± 9.42%. The “venous oxygen volume (VO2)” value ([3]; 120 min after dosage) was 15.20 ± 1.50 ml %, the “VO2, changing percentage (before dosage = 100%)” value ([3]; 180 min after dosage) was 89.62 ± 11.94% and the “venous oxygen volume (VO2)” value ([3]; 180 min after dosage) was 14.82 ± 2.28 ml %. For the same molecule, the “venous oxygen volume (VO2)” value ([3]; after hypoxia (value before dosage)) was 16.56 ± 1.61 ml %, the “VO2, changing percentage” value ([3]; after hypoxia, before dosage) was 111.45 ± 33.86% and the “venous oxygen volume (VO2)” value ([3]; before hypoxia (normal value)) was 15.44 ± 2.42 ml %. The 6-Keto-PGF1α ([4]; 30 min after dosage) was 1749.4 ± 278.3, the “6-Keto-PGF1α, changing in percentage (before dosage = 100%)” value ([4]; 30 min after dosage) was 118.95 ± 14.47 % and the “ET, changing in percentage (before dosage = 100%)” value ([4]; 30 min after dosage) was 85.14 ± 13.98 %. The “TXB2, changing in percentage (before dosage = 100%)” value ([4]; 30 min after dosage) was 101.14 ± 17.90 %, the “blood plasma ET” value ([4]; 30 min after dosage) was 47.51 ± 7.39 pg/mL and the “blood plasma TXB2” value ([4]; 30 min after dosage) was 143.40 ± 28.64 pg/mL. The 6-Keto-PGF1α ([4]; 60 min after dosage) was 1902.6 ± 155.1, the “6-Keto-PGF1α, changing in percentage (before dosage = 100%)” value ([4]; 60 min after dosage) was 131.19 ± 16.98 % and the “ET, changing in percentage (before dosage = 100%)” value ([4]; 60 min after dosage) was 84.06 ± 18.24 %. For the same molecule, the “TXB2, changing in percentage (before dosage = 100%)” value ([4]; 60 min after dosage) was 92.58 ± 15.17 %, the “blood plasma ET” value ([4]; 60 min after dosage) was 46.38 ± 9.02 pg/mL and the “blood plasma TXB2” value ([4]; 60 min after dosage) was 134.40 ± 46.48 pg/mL. The 6-Keto-PGF1α ([4]; 90 min after dosage) was 1912.4 ± 258.5, the “6-Keto-PGF1α, changing in percentage (before dosage = 100%)” value ([4]; 90 min after dosage) was 132.75 ± 28.52 % and the “ET, changing in percentage (before dosage = 100%)” value ([4]; 90 min after dosage) was 71.69 ± 12.10 %. For the same molecule, the “TXB2, changing in percentage (before dosage = 100%)” value ([4]; 90 min after dosage) was 69.72 ± 8.76 %, the “blood plasma ET” value ([4]; 90 min after dosage) was 39.97 ± 7.95 pg/mL and the “blood plasma TXB2” value ([4]; 90 min after dosage) was 1093.4 ± 320.9 pg/mL. The 6-Keto-PGF1α ([4]; 120 min after dosage) was 1982.8 ± 574.2, the “6-Keto-PGF1α, changing in percentage (before dosage = 100%)” value ([4]; 120 min after dosage) was 139.39 ± 56.36 % and the “ET, changing in percentage (before dosage = 100%)” value ([4]; 120 min after dosage) was 74.30 ± 17.04 %. For the same molecule, the “TXB2, changing in percentage (before dosage = 100%)” value ([4]; 120 min after dosage) was 63.03 ± 14.20 %, the “blood plasma ET” value ([4]; 120 min after dosage) was 41.42 ± 15.69 pg/mL and the “blood plasma TXB2” value ([4]; 120 min after dosage) was 1284.1 ± 695.0 pg/mL. The 6-Keto-PGF1α ([4]; 180 min after dosage) was 1705.2 ± 412.2, the “6-Keto-PGF1α, changing in percentage (before dosage = 100%)” value ([4]; 180 min after dosage) was 119.08 ± 39.78% and the “ET, changing in percentage (before dosage = 100%)” value ([4]; 180 min after dosage) was 82.16 ± 14.09 %. The “TXB2, changing in percentage (before dosage = 100%)” value ([4]; 180 min after dosage) was 62.77 ± 14.51 %, the “blood plasma ET” value ([4]; 180 min after dosage) was 45.74 ± 9.40 pg/mL and the “blood plasma TXB2” value ([4]; 180 min after dosage) was 1032.7 ± 343.1 pg/mL. The 6-Keto-PGF1α ([4]; after hypoxia before dosage) was 1478.8 ± 218.6, the “6-Keto-PGF1α, changing in percentage” value ([4]; after hypoxia before dosage) was 92.3 ± 5.53% and the “ET, changing in percentage” value ([4]; after hypoxia before dosage) was 178.30 ± 57.33%. For the same molecule, the “TXB2, changing in percentage” value ([4]; after hypoxia before dosage) was 101.14 ± 19.90 %, the “blood plasma ET” value ([4]; after hypoxia before dosage) was 55.51 ± 3.59 pg/mL and the “blood plasma TXB2” value ([4]; after hypoxia before dosage) was 143.40 ± 28.64 pg/mL. The 6-Keto-PGF1α ([4]; before hypoxia (normal value)) was 1597.4 ± 185.3, the “blood plasma ET” value ([4]; before hypoxia (normal)) was 34.41 ± 9.41 pg/mL and the “blood plasma TXB2” value ([4]; before hypoxia (normal)) was 106.40 ± 19.12 pg/mL. For the same molecule, the “MDA, blood serum” value [5] was 5.29 ± 1.07 (μ mol/L) × 10^−3 and the “SOD, blood serum” value [5] was 817.6 ± 115.6 U/ml.
